Laboratory results from BindingDB's records for doi:10.1016/s0960-894x(01)00814-9 (Friedrich-Alexander University, 2002).

Target: 5-hydroxytryptamine receptor 1A (Sus scrofa)
Test: Compound was tested in vitro for its ability to compete with [3H]8-OH-DPAT at 5-hydroxytryptamine 1A receptor in porcine brain homogenate

N#Cc1cccc2c(CN3CCN(c4ccc(Cl)cc4)CC3)cnn12 [3-[4-(4-Chloro-phenyl)-piperazin-1-ylmethyl]-pyrazolo[1,5-a]pyridine-7-carbonitrile]
Ki: 2.2 µM
